This is an account of results in PMC8443738, “Interplay between membrane active host defense peptides and heme modulates their assemblies and in vitro activity” (Scientific Reports, 2021).

Values joined by “and” are separate entries in the source; they are usually repeats but may differ in a detail not shown here. Identical values can stand only once. Counter-ions that a name gives are not always drawn. Like-named read-outs stand apart in the source and are kept apart here.

For series [1], the system named is EBC-1 cells. Nature of the series: Cytostasis (viability) assay, Alamar Blue. Format: cell-based, human. As to conditions: for live cell %: mean ± SEM; for dead cells: alone. As for the experimental part: EBC-1 (squamous cell carcinoma, metastatic, origin: bronchi, JCRB No: JCRB0820[85],[86], originally purchased from Thermo Fisher Scientific and provided by the National Institute of Oncology, Budapest, Hungary) cells were maintained as an adherent culture in DMEM medium (Lonza) containing 10% FBS (Gibco) and supplemented with 2 mM of L-glutamine (Lonza), 1% non-essential amino acids (Gibco), 1 mM sodium pyruvate (Sigma-Aldrich), 1% penicillin–streptomycin (10,000 units penicillin and 10 mg streptomycin/ml, Gibco), at 37 °C in a humidified atmosphere containing 5% CO2.
For testing cytostatic effects, 3500 cells per well were plated in 96-well flat bottom tissue culture plates (Sarstedt, Nümbrecht, Germany) in complete DMEM medium. LL-37 stock solution was prepared in serum-free medium (SFM) at 200 µM, while heme compounds were dissolved first in 10 mM NaOH at 3 mM, sterile filtered, and diluted tenfold in SFM. Cells were incubated with the peptide, small molecules, or peptide-small molecule mixtures for 24 h. Then cells were washed three times with SFM and cultured further for 72 h in complete medium. Cytostatic activity was determined using the Alamar Blue assay, where 20 µl Alamar Blue (resazurin sodium salt, Sigma-Aldrich) solution (0.15 mg/ml, dissolved in PBS, pH 7.4) was added to each well. Following a 3 h incubation, fluorescence (λEx = 530/30 and λEm = 610/10 nm) was read using a Synergy H4 multi-mode microplate reader (BioTek, Winooski, VT, USA). Live cell percentage of treated cells was calculated compared to control cells treated with medium only. All measurements were performed in triplicates, and live cell % values together with SEM are presented.
(In general: Resazurin is reduced to fluorescent resorufin, in cell work by metabolically active cells.)

Series [2] has as its system EBC-1 cells. Nature of the series: Cell morphology by bright field microscopy. Type of series: cell-based, human. As to conditions: 3 h exposure; for cell morphology: 33 µM. As for the experimental part:
To visualize cell morphology changes, microscopic images of EBC-1 cells were captured. EBC-1 cells were plated in a 96-well flat bottom tissue culture plate and treated with peptide, heme compounds, and their mixtures as described in the above section. Microscopic images of the adherent cells were taken after the first 3 h of the treatment using an Olympus CKX41 microscope (Hamburg, Germany, objective: 20×).

For series [3] the following is noted: cited from earlier work. On the procedure:
Based on CD spectral features, apparent dissociation constants in the 20–50 μM range could be estimated for the peptide-hemin interactions as a single dose of a molar equivalent of hemin (25 μM) was enough here to reach close-to-saturation levels for several peptides (Fig. 1). […] It should be noted that classical considerations on affinity determination might fail for the ...

A short description of series [4]: Intrinsic Trp fluorescence quenching by hemin. As to conditions: PBS, 25 °C. Type of series: binding. On the procedure:
Spectra were collected using a Jobin Yvon Fluoromax-3 spectrofluorometer at 25 °C in PBS. Spectra were recorded three times, averaged, and corrected by subtracting an appropriate blank. The Trp fluorophore was excited at 295 nm, and emission was monitored from 305 to 400 nm. 2 µM peptide was titrated with subsequent addition of hemin (up to 20 μM) in the presence and absence of liposomes (100 µM total lipid).

Series [5] can be described thus: Dynamic light scattering of peptide-hemin assemblies. Type of series: physicochemical. Particulars: three-component systems: 25 µM peptide, 75 µM hemin, 635 µM lipid (PC or PC/PG), PBS, various mixing order. On the procedure:
Particle size and size distribution of the peptide-small molecule mixtures were measured at 20 °C using a W130i dynamic light scattering device (DLS, Avid Nano Ltd., High Wycombe, UK) with a diode laser (660 nm) and a photodiode detector. Low volume disposable cuvettes with 1 cm path-length were used (UVette, Eppendorf Austria GmbH). Samples prepared for CD experiments were measured after completing the titration. The time-dependent autocorrelation function was measured for 10 s, repeated 10 times.

A further series deals with erythrocytes. Particulars: cited from earlier work. The source says:
Based on our results on model membranes, and in vitro assays on the selected cell line above, further activity alterations of the AMPs upon complex formation with hemin may be speculated. First of all, AMP–heme interaction could result in reduced antimicrobial activity by lowering the active peptide concentration. This can be achieved either by sequestering the free available peptide fraction by heme not allowing membrane interaction or by precluding formation of the active membrane-bound conformation of the peptides in the hemin-complexed membrane-associated form. A further interesting point ...

For series [6] the following is noted: hemin-to-peptide ratio of 1:3; no lipid; cited from earlier work.

As for “LLGDFFRKSKEKIGKEFKRIVQRIKDFLRNLVPRTES [LL-37, the only human cathelicidin, a host defense peptide]”, the live cell percentage with EBC-1 cells [1] (EBC-1, 17 µM LL-37 administered together with hemin or biliverdin) is reported as 25–35%. The live cell % in the series on EBC-1 cells [1] (EBC-1, 17 µM LL-37 alone, relative to untreated control, n = 3) is 4.7 ± 1.3% and ~ 5%; in the series with EBC-1 cells [1] (EBC-1, 17 µM LL-37 with biliverdin at 1:3 ratio, n = 3), 34 ± 6%; with EBC-1 cells [1] (EBC-1, 17 µM LL-37 with hemin at 1:1 peptide to hemin ratio, n = 3), 36 ± 12%; in the series on EBC-1 cells [1] (EBC-1, 17 µM LL-37 with hemin at 1:3 ratio, n = 3), 23 ± 6%. Also, the cells killed with EBC-1 cells [1] (EBC-1, LL-37 at 17 µM, 24 h treatment + 72 h culture, Alamar Blue, n = 3) is on record as ~ 90%; with EBC-1 cells [1] (EBC-1, LL-37 at 50 µM, 24 h treatment + 72 h culture, Alamar Blue, n = 3), “almost all cells”. Besides, the cytostatic effect result in the series on EBC-1 cells [1] (EBC-1, LL-37 at ~5 µM, 24 h treatment + 72 h culture, Alamar Blue, n = 3) is “no significant effect”. Further, the cell morphology alterations result in the series with EBC-1 cells [2] (17 µM LL-37) was “shrinkage, and membrane defects”. Also, the Kd in series [3] (calculated, read-out: Kd, interaction with hemin) is 20 to 36 µM.

Turning to `C=CC1=C(C)/C(=C/C2=NC(=C\c3[nH]c(/C=C4\NC(=O)C(C)=C4C=C)c(C)c3CCC(=O)O)/C(CCC(=O)O)=C2C)NC1=O` [biliverdin, biliverdin HCl], the toxicity result with EBC-1 cells [1] (EBC-1, up to 100 µM (Fig. S12)) is “No significant toxicity”. In the series on EBC-1 cells [1] (EBC-1, up to 100 µM, 24 h treatment + 72 h culture, Alamar Blue), the cytostatic effect entry is recorded as “No cytostatic effect”. In the series with EBC-1 cells [2], the cell morphology result is “Non-damaged cells”.

For hemin, in the series with EBC-1 cells [1] (EBC-1 (Fig. S12)), the “concentration with dose-dependent cytostatic effect” value is given as no less than 33 µM. The dead cells is ~ 20% with EBC-1 cells [1] (EBC-1, 33 µM, 24 h treatment + 72 h culture, Alamar Blue) and roughly 60% in the series on EBC-1 cells [1] (EBC-1, 100 µM, 24 h treatment + 72 h culture, Alamar Blue). The “concentration at which cytostatic” value in the series with EBC-1 cells [1] (EBC-1, compound alone, 24 h treatment + 72 h culture, Alamar Blue) is reported as greater than 10 µM. The cell morphology result with EBC-1 cells [2] is “Non-damaged cells”.

Regarding CM15, the “Trp fluorescence quenching by hemin” value in series [4] (2 µM peptide, 10 µM hemin, no lipid) was “total signal loss”. The “average particle size of aggregates (DLS)” value in series [5] is given as no more than 1 µm. In the series on erythrocytes, the hemolytic effects entry is “moderate”.

Consider melittin, for which, in series [4] (2 µM peptide with PC liposomes), the “Trp fluorescence quenching by hemin” value is reported as “complete signal loss”. For the same molecule, in series [3] (read-out: binding strength, interaction with hemin), the Kd is 60 to 120 µM. Also, the “remaining Trp fluorescence intensity on hemin quenching” value in series [6] is 5–10%. Besides, the hemolytic effects result in the series on erythrocytes is “strong”.
